Test results: patent publication US8993509B2, “Method for treatment of cachexia by administering inhibitors of adipose triglyceride lipase expression or activity” (priority 2010, dated 2015)

Legend:
ATGL [1] = target: T1, ATGL (Mus musculus, UniProt Q8BJ56); assay: Lipase assay (triglyceride hydrolase assay) with candidate inhibitors; assay type: biochemical; conditions: versus control (DMSO), FIG. 9
T1 construct: The lipid-free infranatant (cytosolic fraction) was collected and, used for triacyl-glycerol (TG) hydrolase assays; from tissue; host or cells: mouse white adipose tissue, cytosolic fraction (100,000 g infranatant)
T1 sequence (Q8BJ56 1-486): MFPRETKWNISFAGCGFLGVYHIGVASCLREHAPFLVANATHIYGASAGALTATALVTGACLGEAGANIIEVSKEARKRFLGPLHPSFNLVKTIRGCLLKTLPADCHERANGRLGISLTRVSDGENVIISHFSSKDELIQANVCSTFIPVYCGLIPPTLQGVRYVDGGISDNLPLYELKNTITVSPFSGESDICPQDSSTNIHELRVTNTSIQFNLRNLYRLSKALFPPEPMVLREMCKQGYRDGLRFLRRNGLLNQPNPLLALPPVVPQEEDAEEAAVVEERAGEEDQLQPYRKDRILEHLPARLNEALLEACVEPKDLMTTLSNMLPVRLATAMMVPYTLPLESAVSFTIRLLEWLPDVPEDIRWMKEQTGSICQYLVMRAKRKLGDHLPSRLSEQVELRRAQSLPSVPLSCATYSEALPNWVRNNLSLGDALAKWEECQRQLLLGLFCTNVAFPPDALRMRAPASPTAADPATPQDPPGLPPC
Description: Mesenteric, retroperitoneal, omental and, gonadal white adipose tissues (WAT) of wild-type (wt), Adipose Tri-Glyceride Lipase-knockout (ATGL-ko) and, Hormone Sensitive Lipase-knockout (HSL-ko) mice were removed surgically and, washed in phosphate-buffered saline (PBS) containing 1 mM ethylenediaminetetraacetic-acid (EDTA). The tissue was homogenized in lysis buffer (0.25 M sucrose, 1 mM EDTA, 1 mM dithiothreitol, 20 μg/ml leupeptin, 2 μg/ml antipain, 1 μg/ml pepstatin, pH 7.0) using a Magna Lyser (Roche diagnostics GmbH, Mannheim, Germany). The WAT lysate was centrifuged at 100,000 g for 1 hour (h) at 4° C. The lipid-free infranatant (cytosolic fraction) was collected and, used for triacyl-glycerol (TG) hydrolase assays. The substrate for the measurement of lipase activity containing triolein and [9, 10-3H(N)-triolein] (NEN Life Science Products, Boston, Mass.) as radioactive tracer was emulsified with phosphatidylcholine/phosphatidylinositol using a conventional ultrasound sonicator. The cytosolic fractions supplemented with or, without a specific inhibitor for HSL were incubated at 37° C. for 60 min under constant shaking. The reaction was terminated by addition of 3.25 ml methanol/chloroform/heptane (10:9:7) and, 1 ml of 0.1 M potassium carbonate and, 0.1 M boric acid (pH 10.5). After centrifugation at 800 g for 20 minutes (min) the radioactivity in 1 ml of the upper phase was determined by liquid scintillation counting in a LS 6500 Multi-Purpose Scintillation Counter from Beckman Coulter Inc. (Fullerton, Calif.).
For determination of lipase activity 0.1 ml of cytosolic extracts and 0.1 ml substrate are incubated in a water bath at 37° C. for 60 min. The reaction is terminated by adding 3.25 ml of methanol/chloroform/heptane (10:9:7) and 1 ml of 0.1 M potassium carbonate, 0.1 M boric acid, pH 10.5. After centrifugation (800 g, 20 min) the radioactivity in 1 ml of the upper phase is determined by liquid scintillation counting. Neutral lipase activity is measured in 50 mM potassium phosphate buffer, pH 7.0 and 2.5% defatted BSA. The substrate for neutral TG lipase activity contained 33 nmol triolein/assay with [9,10-^3H(N)]-triolein (40.000 cpm/nmol, NEN Life Science Products) as radioactive tracer for COS-7 cells and 167 nmol/assay for 3T3-L1 adipocytes (7300 cpm/nmol). The substrates for cholesteryl esterase and retinyl esterase activity contained 10 nmol/assay of cholesteryl oleate or retinyl palmitate and the corresponding tracers cholesteryl [9,10-^3H]-oleate or retinyl [9,10-^3H(N)]-palmitate (50.000 cpm/nmol). For determination of phospholipase activity in cytosolic extracts the substrate contained 20 nmol/assay phosphatidylcholine and [dipalmitoyl-1-^14C]-phosphatidylcholine (12.000 cpm/nmol). […]

iPLA2β = target: T2, iPLA2β (Homo sapiens, UniProt O60733); conditions: cited from earlier work
T2 sequence (O60733 1-806): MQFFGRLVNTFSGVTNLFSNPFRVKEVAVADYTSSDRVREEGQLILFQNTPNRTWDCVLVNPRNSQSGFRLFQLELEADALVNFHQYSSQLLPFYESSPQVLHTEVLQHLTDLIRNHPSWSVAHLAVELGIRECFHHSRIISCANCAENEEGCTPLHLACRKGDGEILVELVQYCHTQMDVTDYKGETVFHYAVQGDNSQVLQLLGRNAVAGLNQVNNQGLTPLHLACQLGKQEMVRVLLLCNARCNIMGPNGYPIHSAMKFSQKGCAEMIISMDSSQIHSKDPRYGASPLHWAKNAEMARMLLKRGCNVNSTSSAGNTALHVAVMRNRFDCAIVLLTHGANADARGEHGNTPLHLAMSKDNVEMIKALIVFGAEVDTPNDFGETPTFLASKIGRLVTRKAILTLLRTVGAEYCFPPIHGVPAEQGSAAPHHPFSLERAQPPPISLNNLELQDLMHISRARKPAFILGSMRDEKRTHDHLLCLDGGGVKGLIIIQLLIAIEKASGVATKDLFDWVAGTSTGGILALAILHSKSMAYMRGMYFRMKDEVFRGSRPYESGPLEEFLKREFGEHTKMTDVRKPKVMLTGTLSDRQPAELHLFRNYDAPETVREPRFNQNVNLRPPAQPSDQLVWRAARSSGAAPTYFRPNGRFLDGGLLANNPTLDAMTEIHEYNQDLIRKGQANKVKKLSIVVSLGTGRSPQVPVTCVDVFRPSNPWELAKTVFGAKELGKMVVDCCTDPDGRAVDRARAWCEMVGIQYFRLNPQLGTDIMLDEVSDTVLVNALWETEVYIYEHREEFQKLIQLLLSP

ATGL [2] = target: T3, ATGL (Homo sapiens, UniProt Q96AD5); conditions: expressed ATGL or native ATGL in hepatocytes; cited from earlier work
T3 sequence (Q96AD5 1-504): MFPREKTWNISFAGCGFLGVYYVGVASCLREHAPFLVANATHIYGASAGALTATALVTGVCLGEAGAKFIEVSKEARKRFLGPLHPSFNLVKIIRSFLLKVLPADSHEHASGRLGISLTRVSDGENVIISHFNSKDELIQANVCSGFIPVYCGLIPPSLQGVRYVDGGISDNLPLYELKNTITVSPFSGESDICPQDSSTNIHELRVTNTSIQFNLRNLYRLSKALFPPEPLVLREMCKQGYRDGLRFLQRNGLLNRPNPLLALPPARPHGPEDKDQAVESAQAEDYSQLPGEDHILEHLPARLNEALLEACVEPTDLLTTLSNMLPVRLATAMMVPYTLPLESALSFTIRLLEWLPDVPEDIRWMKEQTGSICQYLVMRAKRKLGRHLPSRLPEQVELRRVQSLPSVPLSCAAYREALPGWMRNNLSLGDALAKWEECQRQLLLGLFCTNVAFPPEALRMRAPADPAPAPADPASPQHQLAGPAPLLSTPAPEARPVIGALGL

iPLA2γ = target: T4, iPLA2γ (Homo sapiens, UniProt Q9NP80); conditions: cited from earlier work
T4 sequence (Q9NP80 1-782): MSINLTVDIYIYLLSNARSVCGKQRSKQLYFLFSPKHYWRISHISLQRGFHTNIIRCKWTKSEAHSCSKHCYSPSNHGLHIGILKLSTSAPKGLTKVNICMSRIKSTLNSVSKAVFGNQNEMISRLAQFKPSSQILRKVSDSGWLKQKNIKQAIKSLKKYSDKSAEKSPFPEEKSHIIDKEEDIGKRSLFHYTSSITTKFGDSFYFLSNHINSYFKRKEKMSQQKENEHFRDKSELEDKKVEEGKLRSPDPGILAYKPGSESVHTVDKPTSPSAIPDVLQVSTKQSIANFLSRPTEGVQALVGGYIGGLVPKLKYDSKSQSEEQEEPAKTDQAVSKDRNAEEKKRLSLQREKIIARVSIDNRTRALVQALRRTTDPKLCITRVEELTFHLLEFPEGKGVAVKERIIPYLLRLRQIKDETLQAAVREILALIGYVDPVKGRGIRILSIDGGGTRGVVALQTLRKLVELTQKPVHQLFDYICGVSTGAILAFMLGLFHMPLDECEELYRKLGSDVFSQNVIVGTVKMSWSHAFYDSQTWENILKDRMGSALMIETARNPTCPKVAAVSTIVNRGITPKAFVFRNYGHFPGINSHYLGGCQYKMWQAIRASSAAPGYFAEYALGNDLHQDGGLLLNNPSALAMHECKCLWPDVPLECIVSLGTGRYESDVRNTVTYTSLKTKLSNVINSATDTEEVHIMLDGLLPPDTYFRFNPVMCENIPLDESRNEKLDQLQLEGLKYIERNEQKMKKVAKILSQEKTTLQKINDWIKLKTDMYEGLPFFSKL

CN(C)/N=C/c1ccccc1OC(=O)c1cccnc1 [Compound 7]
inhibition of ATGL (ATGL activity, % control) (ATGL [1]): inhibit ATGL

CCOC(=O)c1nn(-c2ccc(OCC)cc2)cc1O [Compound 9]
inhibition of ATGL (ATGL activity, % control) (ATGL [1]): inhibit ATGL

COC(=O)C(O)(c1cc(C)c(O)c(C)c1)C(F)(F)F (stereo not shown) [Compound 3]
inhibition of ATGL (ATGL activity, % control) (ATGL [1]): inhibit ATGL

O=C1O/C(=C/Br)CC[C@@H]1c1cccc2ccccc12 [(R)-Bromoenol lactone]
inhibition of iPLA2β (iPLA2β): inhibits | ATGL inhibition activity (ATGL [2]): ATGL inhibition activity | inhibition of iPLA2γ (iPLA2γ): inhibits

Oc1ccc(/C=N/N2CCN(c3ccccc3)CC2)cc1O [Compound 4]
inhibition of ATGL (ATGL activity, % control) (ATGL [1]): largest degree of inhibition
